Assay results from US8309546B2, “Morpholinopurine derivatives” (Daiichi Sankyo Company, Limited, priority 2008, dated 2012).

Tests used:
[1] = biological target: T1, human mTOR (His-tagged mTOR (1362C)) (Homo sapiens, UniProt P42345); assay: mTOR kinase activity inhibition assay; type: biochemical; conditions: HTRF, read-out: IC50 against mTOR
T1 construct: the 1362 to 2549 amino acid portion on the C terminus side of human mTOR; His tag (N); made in house
Protocol: The mTOR kinase activity was determined in the presence and absence of a test compound. A substrate peptide is phosphorylated by mTOR kinase activity. A complex of streptavidin-XL665 and anti-phosphorylated S6K (Thr389) antibody-anti-mouse IgG-cryptate binds to this phosphorylated peptide. At this time, irradiation of excitation light induces transfer of fluorescence resonance energy from the excited cryptate to XL665, emitting fluorescence at 665 nm. Utilizing this principle, mTOR kinase activity was detected. When the mTOR inhibitor is present, phosphorylation of a substrate peptide is inhibited, and the biding of the above-mentioned complex to the substrate peptide is inhibited.
A His tag was introduced into the N terminus end of the 1362 to 2549 amino acid portion on the C terminus side of human mTOR, and a cell line was prepared, so that His-tagged mTOR should be constantly expressed in a HEK293 cell. A cell lysate was prepared from this HEK293 cell which constantly expressed His-tagged mTOR (1362C), and a crude product of His-tagged mTOR (1362C) was obtained by a usual method utilizing His tag.
Subsequently, an mTOR enzyme solution was prepared which contained the above-mentioned His-tagged mTOR (1362C) enzyme and 8 μg/ml biotinylated peptide (Biotin-Ahx-[…]-amide [Sigma]), as well as 50 mM HEPES (pH 7.5), 20 mM MnCl2, 1 mg/ml BSA, a suitable amount of protease inhibitor cocktail (Complete EDTA free, Roche Ltd.), 100 ng/ml calyculin A, and 4 μg/ml cantharidin as other components.
The test compound was dissolved in dimethyl sulfoxide (DMSO) and serially diluted with 20 μm ATP solution (50 mM HEPES (pH 7.5), 20 μM ATP) to obtain concentrations required for the assay. 5 μl of this compound solution was added to each well of a 384-well small volume white plate manufactured by Greiner Bio-One Co., Ltd.
5 μl of the mTOR enzyme solution was added to the above-mentioned well containing the test compound and the resulting mixture was left standing for 3 hours room temperature to proceed an enzymatic reaction.
The same procedure was performed using a solution obtained by dissolving DMSO in 20 μM ATP solution as a positive control and a solution obtained by dissolving DMSO in 50 mM HEPES buffer (pH 7.5) as a negative control.
After the enzymatic reaction, 5 μl each of an europium solution (a solution obtained by dissolving anti-mouse IgG-cryptate [SCETI Medical Labo K.K.] and anti-phosphorylation S6K [Thr389] antibody [Cell Signaling Technology Inc.] in 50 mM HEPES [pH 7.5], 100 mM EDTA, and 1.5 mg/ml BSA) and an XL665 solution (a solution obtained by dissolving Streptavidin-XL 665 [SCETI Medical Labo K.K.] in 50 mM HEPES [pH 7.5], 100 mM EDTA, 0.8 M KF, and 1.5 mg/ml BSA) were added in this order and mixed and the resulting mixture was left standing overnight at 4° C. On the following day, the mixture was returned to room temperature and then irradiated with 337-nm excitation light and fluorescence at 620 and 665 nm was measured with RUBYstar (BMG LABTECH JAPAN Ltd.).
mTOR inhibitory activity (%) was calculated using the ratio calculated from the measured values as an indicator of enzyme activity. Here, the ratio was calculated by the following formula (1). Ratio=10,000×fluorescence at 665 nm/fluorescence at 620 nm (1)
mTOR enzyme inhibitory activity (%) was calculated by the following formula (2). mTOR enzyme inhibitory activity (%)=100×[(P−S)/(P−N)] (2) P: Ratio in positive control well N: Ratio in negative control well S: Ratio in well containing the test compound
Furthermore, an optimal curve was created using the concentrations of the serially diluted test compound solutions and mTOR enzyme inhibitory activity (%) at each concentration to obtain the concentration showing 50% inhibition as the IC50 value of mTOR enzyme inhibitory activity.

PI3Kα = PI3Kα (Homo sapiens, UniProt P42336); assay: PI3K kinase activity inhibition assay; type: biochemical; conditions: Kinase-Glo Plus ATP detection, read-out: IC50 against PI3K
Protocol: PI3Kα kinase activity was determined in the presence and absence of a test compound. The test compound was dissolved in DMSO and diluted serially with an ATP solution (30 μm ATP, 50 mM HEPES, pH 7.4, 50 mM NaCl, 0.05% CHAPS, 10 mM MgCl2, and 5 mM dithiothreitol [DTT]). First, 7 μl each of the serially diluted test compound solutions was added to each well of a black 384-well plate. Subsequently, 7 μl of a phosphatidylinositol 4,5-bisphosphate (PIP2) solution (45 μm PIP2, 50 mM HEPES, pH 7.4, 50 mM NaCl, 0.05% CHAPS, 10 mM MgCl2, and 5 mM DTT) was added to each well of the 384-well plate. Finally, 7 μl of a solution containing PI3Kα (50 nM PI3Kα, 50 mM HEPES, pH 7.4, 50 mM NaCl, 0.05% CHAPS, 10 mM MgCl2, and 5 mM DTT) was added to each well of the 384-well plate to initiate a reaction. The mixture was reacted at room temperature for 2 hours and then 21 μl of the Kinase-Glo Plusreagent (Promega) was, added to each well of the 384-well plate to terminate the reaction. After the termination of the reaction, the solution was left standing for 15 minutes and then luminescence was measured with ARVO (PerkinElmer Co., Ltd.) to detect ATP remaining in the reaction solution.
The amount of ATP consumed in the reaction was obtained for each well and used as an indicator of PI3Kαkinase activity. The PI3Kα kinase activity in wells not containing the test compound was calculated by the following formula (1). Furthermore, the PI3Kα kinase activity in wells containing the test compound was calculated by the following formula (2). The PI3Kα inhibitory activity (%) of the test compound was calculated by the following formula (3). PI3Kα kinase activity in wells not containing the test compound=B−C (1) PI3Kα kinase activity in wells containing the test compound=B−P (2) PI3Kα inhibitory activity (%) of test compound=100−100×[(B−P)/(B−C)] (3) B: Measured value in wells not containing PI3Kα or the test compound C: Measured value in wells containing PI3Kα and not containing the test compound P: Measured value in wells containing PI3Kα and the test compound
Furthermore, an optimal curve was calculated with Graph Pad Prism 4 using concentrations of the serially diluted test compound solutions and PI3Kα inhibitory activity (%) at each concentration to obtain the concentration showing 50% inhibition as the IC50 value of PI3Kα inhibitory activity.

[2] = test system: human colon cancer cell strain HT29; assay: Cell growth inhibition test (MTT), HT29; type: cell-based; conditions: HT-29, 72 h, HT29, 3 days culture, read-out: concentration exhibiting anti-cell effect (GI50)
Protocol: (§1) After a cultured cancer cell strain was treated with a test compound for a predetermined period, a cell growth inhibition test was performed by measuring the living cell count by the 3-(4,5-dimethylthiazol-2-yl)-2,5-diphenyltetrazoliumbromide (MTT) method.
(§2) Human endometrial cancer cell strain AN3CA, human ovary cancer cell strain IGROV1, and human colon cancer cell strain HT29 were seeded in a 96-well plate at 5000, 1000, and 5000 cells, respectively, per well. On the following day of seeding, a test compound having a predetermined concentration was added and the culture was continued at 37° C. in 5% CO2 for 3 days. On the final day of culture, an MTT reaction solution was added and the resulting mixture was reacted for 4 hours to form formazan by dehydrogenases contained in living cells. Subsequently, the culture broth was removed, DMSO was added to solubilize formazan, and the amount of produced formazan was determined by measuring absorbance at 540 nm using a microplate reader.
(§3) Since correlations of the amount of produced formazan and the living cell count had been confirmed, the cell growth rate was calculated by the following formula. Cell growth rate (T/C %) after addition of test compound=100×[(B−C)/(A−C)] A: Absorbance of well not containing test compound (final culture day) B: Absorbance of well containing test compound (final culture day) C: Absorbance of well immediately before addition of test compound (following day of cell seeding)
(§4) Furthermore, the cell growth rate at each concentration of serially diluted test compound solutions was obtained, and the concentration of the test compound resulting in a 50% growth rate was obtained as the GI50 value from two concentrations including 50% therebetween and the growth rates were selected.

[3] = test system: human ovary cancer cell strain IGROV1; assay: Cell growth inhibition test (MTT), IGROV1; type: cell-based; conditions: IGROV-1, 72 h, IGROV1, 3 days culture, read-out: concentration exhibiting anti-cell effect (GI50)
Protocol: as §1, §2, §3, §4

[4] = test system: human endometrial cancer cell strain AN3CA; assay: Cell growth inhibition test (MTT), AN3CA; type: cell-based; conditions: AN3-CA, 72 h, 3 days culture, read-out: concentration exhibiting anti-cell effect (GI50)
Protocol: as §1, §2, §3, §4

T1 sequence (P42345 1362-2549): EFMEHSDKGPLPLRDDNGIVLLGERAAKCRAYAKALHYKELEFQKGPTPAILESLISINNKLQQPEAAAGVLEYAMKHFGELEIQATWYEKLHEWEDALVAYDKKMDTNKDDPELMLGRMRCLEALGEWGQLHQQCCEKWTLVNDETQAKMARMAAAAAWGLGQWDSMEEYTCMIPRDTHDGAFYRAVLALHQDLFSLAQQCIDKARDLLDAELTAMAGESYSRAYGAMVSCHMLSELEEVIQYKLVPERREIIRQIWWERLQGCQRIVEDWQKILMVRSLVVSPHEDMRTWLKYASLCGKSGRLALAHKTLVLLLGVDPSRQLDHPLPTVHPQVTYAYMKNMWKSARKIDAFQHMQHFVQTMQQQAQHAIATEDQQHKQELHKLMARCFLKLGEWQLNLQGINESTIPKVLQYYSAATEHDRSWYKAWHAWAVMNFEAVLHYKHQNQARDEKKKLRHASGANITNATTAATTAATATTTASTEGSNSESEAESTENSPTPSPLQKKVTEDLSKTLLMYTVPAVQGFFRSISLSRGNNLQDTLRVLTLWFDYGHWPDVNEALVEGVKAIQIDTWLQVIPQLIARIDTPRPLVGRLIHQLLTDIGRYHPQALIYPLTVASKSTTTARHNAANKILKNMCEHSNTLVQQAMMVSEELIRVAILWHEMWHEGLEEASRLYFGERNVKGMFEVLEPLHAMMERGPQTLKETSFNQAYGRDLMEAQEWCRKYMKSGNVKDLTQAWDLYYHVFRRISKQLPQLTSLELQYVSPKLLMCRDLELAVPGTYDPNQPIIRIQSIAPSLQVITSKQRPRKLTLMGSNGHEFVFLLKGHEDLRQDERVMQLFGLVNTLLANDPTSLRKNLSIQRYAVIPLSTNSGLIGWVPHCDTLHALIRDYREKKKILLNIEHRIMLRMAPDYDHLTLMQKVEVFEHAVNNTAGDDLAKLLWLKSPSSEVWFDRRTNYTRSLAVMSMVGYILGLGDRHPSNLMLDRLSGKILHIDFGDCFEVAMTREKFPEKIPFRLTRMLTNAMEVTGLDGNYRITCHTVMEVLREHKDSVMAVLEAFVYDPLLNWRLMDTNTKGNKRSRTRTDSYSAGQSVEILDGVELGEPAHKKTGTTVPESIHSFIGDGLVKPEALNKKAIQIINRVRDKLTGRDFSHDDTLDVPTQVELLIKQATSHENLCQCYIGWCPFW
Chain of PI3Kα (P42336 whole entry, species assumed): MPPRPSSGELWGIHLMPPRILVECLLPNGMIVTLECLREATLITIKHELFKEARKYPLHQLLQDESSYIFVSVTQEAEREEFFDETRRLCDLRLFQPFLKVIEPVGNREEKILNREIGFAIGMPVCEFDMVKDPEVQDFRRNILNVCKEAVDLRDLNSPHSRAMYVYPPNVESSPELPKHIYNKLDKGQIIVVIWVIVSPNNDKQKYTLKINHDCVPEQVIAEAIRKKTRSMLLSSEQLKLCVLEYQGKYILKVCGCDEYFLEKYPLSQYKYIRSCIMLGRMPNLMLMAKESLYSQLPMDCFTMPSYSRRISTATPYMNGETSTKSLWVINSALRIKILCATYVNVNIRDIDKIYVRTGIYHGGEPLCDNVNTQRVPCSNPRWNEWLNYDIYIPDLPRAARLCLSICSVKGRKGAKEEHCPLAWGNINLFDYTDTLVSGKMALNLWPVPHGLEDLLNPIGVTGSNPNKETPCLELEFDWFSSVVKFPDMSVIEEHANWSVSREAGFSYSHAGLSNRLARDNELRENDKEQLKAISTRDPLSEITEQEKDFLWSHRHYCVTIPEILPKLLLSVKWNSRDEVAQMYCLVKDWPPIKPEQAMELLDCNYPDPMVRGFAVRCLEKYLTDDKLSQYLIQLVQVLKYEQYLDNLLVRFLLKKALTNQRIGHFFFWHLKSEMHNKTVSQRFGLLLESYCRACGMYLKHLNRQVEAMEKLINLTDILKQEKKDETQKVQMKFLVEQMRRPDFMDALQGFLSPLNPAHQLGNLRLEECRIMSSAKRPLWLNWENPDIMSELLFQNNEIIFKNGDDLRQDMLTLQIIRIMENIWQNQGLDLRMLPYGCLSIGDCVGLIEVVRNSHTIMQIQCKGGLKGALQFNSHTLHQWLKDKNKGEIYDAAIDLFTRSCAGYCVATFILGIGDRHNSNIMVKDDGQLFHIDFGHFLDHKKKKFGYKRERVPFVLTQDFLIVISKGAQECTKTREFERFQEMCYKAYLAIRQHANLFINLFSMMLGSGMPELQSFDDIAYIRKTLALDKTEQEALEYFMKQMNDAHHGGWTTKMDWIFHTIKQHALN
Chain of PI3Kα (P27986 whole entry partner, species assumed): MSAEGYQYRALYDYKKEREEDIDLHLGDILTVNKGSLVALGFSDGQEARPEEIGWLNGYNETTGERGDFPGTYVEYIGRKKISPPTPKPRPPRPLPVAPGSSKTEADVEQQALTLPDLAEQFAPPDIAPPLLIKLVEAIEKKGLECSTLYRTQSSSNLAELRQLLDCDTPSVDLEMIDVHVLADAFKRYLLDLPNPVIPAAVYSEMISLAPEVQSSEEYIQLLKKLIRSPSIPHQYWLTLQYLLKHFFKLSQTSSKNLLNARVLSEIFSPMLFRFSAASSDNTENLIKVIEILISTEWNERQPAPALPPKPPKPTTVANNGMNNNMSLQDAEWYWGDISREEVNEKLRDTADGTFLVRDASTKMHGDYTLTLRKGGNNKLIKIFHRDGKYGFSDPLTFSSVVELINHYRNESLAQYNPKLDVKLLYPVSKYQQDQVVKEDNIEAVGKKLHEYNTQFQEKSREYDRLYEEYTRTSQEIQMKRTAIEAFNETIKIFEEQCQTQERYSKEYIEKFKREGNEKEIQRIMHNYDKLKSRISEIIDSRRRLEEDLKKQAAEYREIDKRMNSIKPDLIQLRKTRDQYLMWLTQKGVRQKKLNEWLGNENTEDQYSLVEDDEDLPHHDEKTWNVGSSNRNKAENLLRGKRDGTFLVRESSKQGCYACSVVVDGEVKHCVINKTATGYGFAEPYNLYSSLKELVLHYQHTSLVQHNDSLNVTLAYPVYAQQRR

Row | IC50 [1] [µM] | IC50 (PI3Kα) [µM] | GI50 [2] [µM] | GI50 [3] [µM] | GI50 [4] [µM] | SMILES
1 | < 0.01 | 0.01 to 0.02 | ≤ 5 | ≤ 5 | ≤ 5 | CC(O)C(=O)N1[C@H](C)CN(c2nc3c(N4CCOCC4)nc(-c4cnc(N)nc4)nc3n2CC(F)(F)F)C[C@@H]1C (stereo partly drawn) [Example 124, 1-{4-[2-(2-Aminopyrimidin-5-yl)-6-morpholin-4-yl-9-(2,2,2-trifluoroethyl)-9H-purin-8-yl]-cis-2,6-dimethylpiperazin-1-yl}-1-oxopropan-2-ol]
2 | 0.1 to 0.5 | 0.01 to 0.02 | ≤ 5 | ≤ 5 | ≤ 5 | Cc1nc(N)ncc1-c1nc(N2CCOCC2)c2nc(N3CCC(CO)CC3)n(CC3CC3)c2n1 [Example 37, {1-[2-(2-Amino-4-methylpyrimidin-5-yl)-9-(cyclopropylmethyl)-6-morpholin-4-yl-9H-purin-8-yl]piperidin-4-yl}methanol]
3 | ≥ 0.5 | < 0.01 | ≤ 5 | ≤ 5 | ≤ 5 | Cc1nc(N)ncc1-c1nc(N2CCOCC2)c2nc(N3CC[C@@H](NS(C)(=O)=O)C3)n(CC3CC3)c2n1 [Example 72, N-{(3R)-1-[2-(2-Amino-4-methylpyrimidin-5-yl)-9-(cyclopropylmethyl)-6-morpholin-4-yl-9H-purin-8-yl]pyrrolidin-3-yl}methanesulfonamide]
4 | ≥ 0.5 | 0.02 to 0.05 | ≤ 5 | ≤ 5 | ≤ 5 | Cc1nc(N)ncc1-c1nc(N2CCOCC2)c2nc(NCCNS(C)(=O)=O)n(CC3CC3)c2n1 [Example 32, N-(2-{[2-(2-Amino-4-methylpyrimidin-5-yl)-9-(cyclopropylmethyl)-6-morpholin-4-yl-9H-purin-8-yl]amino}ethyl)methanesulfonamide]
5 | 0.1 to 0.5 | < 0.01 | ≤ 5 | ≤ 5 | ≤ 5 | CS(=O)(=O)N1CCN(c2nc3c(N4CCOCC4)nc(-c4cnc(N)nc4C(F)(F)F)nc3n2CC2CC2)CC1 [Example 7, 5-{9-(Cyclopropylmethyl)-8-[4-(methylsulfonyl)piperazin-1-yl]-6-morpholin-4-yl-9H-purin-2-yl}-4-(trifluoromethyl)pyrimidin-2-amine]
6 | 0.01 to 0.03 | < 0.01 | ≤ 5 | ≤ 5 | ≤ 5 | C[C@@H]1CN(c2nc3c(N4CCOCC4)nc(-c4cnc(N)nc4)nc3n2CC(F)(F)F)CCN1 [Example 59, 5-{8-[(3R)-3-Methylpiperazin-1-yl]-6-morpholin-4-yl-9-(2,2,2-trifluoroethyl)-9H-purin-2-yl}pyrimidin-2-amine]
7 | 0.03 to 0.1 | 0.01 to 0.02 | ≤ 5 | ≤ 5 | ≤ 5 | CNc1ncc(-c2nc(N3CCOCC3)c3nc(N4CCN(S(C)(=O)=O)CC4)n(CC4CC4)c3n2)cn1 [Example 4, 5-{9-(Cyclopropylmethyl)-8-[4-(methylsulfonyl)piperazin-1-yl]-6-morpholin-4-yl-9H-purin-2-yl}-N-methylpyrimidin-2-amine]
8 | 0.1 to 0.5 | 0.05 to 0.1 | ≤ 5 | ≤ 5 | ≤ 5 | CNc1ncc(-c2nc(N3CCOCC3)c3nc(N4C[C@@H](C)N[C@@H](C)C4)n(CC4CCOC4)c3n2)cn1 (stereo partly drawn) [Example 18, 5-[8-(cis-3,5-Dimethylpiperazin-1-yl)-6-morpholin-4-yl-9-(tetrahydrofuran-3-ylmethyl)-9H-purin-2-yl]-N-methylpyrimidin-2-amine]
9 | 0.03 to 0.1 | < 0.01 | ≤ 5 | ≤ 5 | ≤ 5 | CNCC(=O)N1CCN(c2nc3c(N4CCOCC4)nc(-c4cnc(N)nc4)nc3n2CC2CC2)CC1 [Example 41, 5-[9-(Cyclopropylmethyl)-8-{4-[(methylamino)acetyl]piperazin-1-yl}-6-morpholin-4-yl-9H-purin-2-yl]pyrimidin-2-amine]
10 | 0.03 to 0.1 | 0.01 to 0.02 | ≤ 5 | ≤ 5 | ≤ 5 | Nc1ncc(-c2nc(N3CCOCC3)c3nc(NCCO)n(CC4CC4)c3n2)cn1 [Example 30, 2-{[2-(2-Aminopyrimidin-5-yl)-9-(cyclopropylmethyl)-6-morpholin-4-yl-9H-purin-8-yl]amino}ethanol]
